Test systems include RXF 393 renal; TK-10 renal; SNB-19 CNS; IGROV1 ovarian; CCRF-CEM leukemia; HOP-62 NSCLC; SR leukemia; OVCAR-4 ovarian; HCT-116 colon; NCI-H460 lung; SN12C renal; 786-0 renal; MCF7 breast; SK-MEL-5 melanoma; OVCAR-5 ovarian; MDA-MB-435.
Common to all, as to assay: NCI anticancer screen, dose series, 48 h

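Following 48 hours of exposure in 96-well plates, responses at five concentrations were used to interpolate endpoints linearly. GI50 is the concentration that inhibits growth by half. The concentration for full growth arrest is given as TGI.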 Some results are limits rather than exact numbers.

Turning to `Cc1cccc2c1NC(=S)[C@@H]1CCCN1C2=O`, the TGI with RXF 393 renal, in the experiment with TK-10 renal, in the experiment with SNB-19 CNS, in the experiment with IGROV1 ovarian, in the experiment with CCRF-CEM leukemia and in the experiment with HOP-62 NSCLC was greater than 100 µM throughout. The TGI in the experiment with SR leukemia, in the experiment with OVCAR-4 ovarian, in the experiment on HCT-116 colon, with NCI-H460 lung, in the experiment with SN12C renal and with 786-0 renal was greater than 100 µM throughout. Further, the TGI with MCF7 breast, with SK-MEL-5 melanoma, with OVCAR-5 ovarian and in the experiment with MDA-MB-435 was greater than 100 µM in each case.
With `C=CC[C@H](C)CCC(=O)N1[C@H]2CC3CC[C@@]2(CS1(=O)=O)C3(C)C`, the TGI with RXF 393 renal is greater than 100 µM; in the experiment with TK-10 renal it was greater than 100 µM; with SNB-19 CNS, greater than 100 µM; in the experiment with IGROV1 ovarian, greater than 100 µM; in the experiment on CCRF-CEM leukemia, 59.2 µM; in the experiment on HOP-62 NSCLC, greater than 100 µM. In addition, the TGI with SR leukemia, with OVCAR-4 ovarian, in the experiment with HCT-116 colon, in the experiment with NCI-H460 lung, in the experiment on SN12C renal and in the experiment with 786-0 renal was greater than 100 µM each time. Further, the TGI in the experiment with MCF7 breast is greater than 100 µM; in the experiment with SK-MEL-5 melanoma, 51.3 µM; in the experiment with OVCAR-5 ovarian, greater than 100 µM; in the experiment with MDA-MB-435, greater than 100 µM.
In the case of `CCC(CCCC[C@@H]1CC[C@H]2CC(=O)C[C@@H]12)OC` (stereo not given in full), the TGI in the experiment on RXF 393 renal, in the experiment on TK-10 renal, with SNB-19 CNS, in the experiment on IGROV1 ovarian, in the experiment on CCRF-CEM leukemia and in the experiment with HOP-62 NSCLC was greater than 100 µM throughout. In addition, the TGI in the experiment with SR leukemia, with OVCAR-4 ovarian, in the experiment with HCT-116 colon, in the experiment on NCI-H460 lung, in the experiment on SN12C renal and in the experiment on 786-0 renal was greater than 100 µM each time. The TGI with MCF7 breast, in the experiment with SK-MEL-5 melanoma, with OVCAR-5 ovarian and in the experiment on MDA-MB-435 was greater than 100 µM throughout.
Take `CSc1ccc(/C=C2\N=C(c3ccccc3)N(c3nc4ccc(Sc5ccccc5)cc4[nH]3)C2=O)cc1`: the TGI with RXF 393 renal is 56.9 µM; in the experiment with TK-10 renal, 60.8 µM; in the experiment with SNB-19 CNS it was greater than 89.2 µM; in the experiment with IGROV1 ovarian it was greater than 100 µM; in the experiment on CCRF-CEM leukemia, 86.8 µM; in the experiment with HOP-62 NSCLC, 65.9 µM. The TGI in the experiment on SR leukemia is greater than 87.5 µM; with OVCAR-4 ovarian it was greater than 100 µM; in the experiment with HCT-116 colon, 48.5 µM; in the experiment with NCI-H460 lung, 61.3 µM; in the experiment with SN12C renal, greater than 84.2 µM; in the experiment on 786-0 renal it was 50.8 µM. In addition, the TGI with MCF7 breast was 45.9 µM; in the experiment on SK-MEL-5 melanoma it was 27.3 µM; with OVCAR-5 ovarian, 83.7 µM; with MDA-MB-435, 16.1 µM. Further, the GI50 in the experiment with SR leukemia was 13.7 µM.
Regarding `C[Si](C)(OCCS(=O)(=O)O)C1S(=O)(=O)OCCOS1(=O)=O`, the TGI with RXF 393 renal, in the experiment with TK-10 renal, in the experiment on SNB-19 CNS, with IGROV1 ovarian, in the experiment on CCRF-CEM leukemia and with HOP-62 NSCLC was greater than 100 µM throughout. Besides, the TGI with SR leukemia, in the experiment with OVCAR-4 ovarian, with HCT-116 colon, with NCI-H460 lung, in the experiment with SN12C renal and in the experiment on 786-0 renal was greater than 100 µM in each case. For the same molecule, the TGI with MCF7 breast, with SK-MEL-5 melanoma, with OVCAR-5 ovarian and in the experiment on MDA-MB-435 was greater than 100 µM in each case.
Consider `COCCOCCOC1=C(Cl)C(=O)c2c(O)ccc(O)c2C1=O`, for which the TGI was 2.99 µM in the experiment with RXF 393 renal; 3.25 µM with TK-10 renal; 27.1 µM with SNB-19 CNS; 7.37 µM in the experiment on IGROV1 ovarian; 45.1 µM in the experiment on CCRF-CEM leukemia; 7.3 µM in the experiment with HOP-62 NSCLC. The TGI was determined as 3.04 µM with SR leukemia; 4.36 µM in the experiment with OVCAR-4 ovarian; 2.46 µM in the experiment with HCT-116 colon; 29.8 µM with NCI-H460 lung; 3.7 µM in the experiment with SN12C renal; 2.61 µM in the experiment with 786-0 renal. The TGI in the experiment with MCF7 breast stood at 4.62 µM; in the experiment on SK-MEL-5 melanoma, 3.79 µM; with OVCAR-5 ovarian it was 22.6 µM; in the experiment on MDA-MB-435, 3.83 µM.
As for `CC(=O)OCC1=C(C)C(OC(=O)C(OC(C)=O)[C@@H](NC(=O)c2ccccc2)c2ccccc2)CCC1(C)C` (stereo not given in full), the TGI with RXF 393 renal, with TK-10 renal, in the experiment with SNB-19 CNS, with IGROV1 ovarian, in the experiment with CCRF-CEM leukemia and with HOP-62 NSCLC was greater than 100 µM throughout. Also, the TGI in the experiment on SR leukemia, with OVCAR-4 ovarian, in the experiment with HCT-116 colon, in the experiment with NCI-H460 lung, in the experiment with SN12C renal and with 786-0 renal was greater than 100 µM throughout. Further, the TGI in the experiment with MCF7 breast, with SK-MEL-5 melanoma, in the experiment with OVCAR-5 ovarian and in the experiment with MDA-MB-435 was greater than 100 µM in each case.
Consider `O=C(N/N=C\c1ccc2ccccc2c1)Nc1ccc([N+](=O)[O-])cc1`, for which the TGI in the experiment on RXF 393 renal was greater than 79.2 µM; in the experiment with TK-10 renal it was greater than 55.9 µM; in the experiment with SNB-19 CNS, greater than 100 µM; in the experiment with IGROV1 ovarian it was greater than 100 µM; in the experiment with CCRF-CEM leukemia it was greater than 100 µM; with HOP-62 NSCLC, 68.1 µM. The TGI with SR leukemia is greater than 100 µM; with OVCAR-4 ovarian, greater than 70.2 µM; with HCT-116 colon, greater than 59 µM; in the experiment on NCI-H460 lung, greater than 65.1 µM; in the experiment with SN12C renal, greater than 59.8 µM; in the experiment with 786-0 renal it was greater than 62.8 µM. Further, the TGI was greater than 100 µM with MCF7 breast, greater than 70.4 µM with SK-MEL-5 melanoma, 62.9 µM in the experiment on OVCAR-5 ovarian and greater than 100 µM in the experiment with MDA-MB-435.
For `O=C1CCCCc2cccc(O)c21`, the TGI with RXF 393 renal, in the experiment with TK-10 renal, in the experiment with SNB-19 CNS, in the experiment on IGROV1 ovarian, with CCRF-CEM leukemia and with HOP-62 NSCLC was greater than 100 µM each time. Further, the TGI with SR leukemia, in the experiment with OVCAR-4 ovarian, with HCT-116 colon, in the experiment with NCI-H460 lung, in the experiment with SN12C renal and with 786-0 renal was greater than 100 µM throughout. For the same molecule, the TGI in the experiment with MCF7 breast, in the experiment on SK-MEL-5 melanoma, with OVCAR-5 ovarian and with MDA-MB-435 was greater than 100 µM each time.
Turning to `Cc1ccc(Nc2cc(=O)[nH]c(=S)[nH]2)cc1`, the TGI with RXF 393 renal, with TK-10 renal, in the experiment on SNB-19 CNS, with IGROV1 ovarian, in the experiment with CCRF-CEM leukemia and with HOP-62 NSCLC was greater than 100 µM in each case. Besides, the TGI in the experiment on SR leukemia, in the experiment on OVCAR-4 ovarian, in the experiment on HCT-116 colon, in the experiment on NCI-H460 lung, with SN12C renal and with 786-0 renal was greater than 100 µM throughout. The TGI in the experiment on MCF7 breast, in the experiment with SK-MEL-5 melanoma, in the experiment with OVCAR-5 ovarian and in the experiment on MDA-MB-435 was greater than 100 µM throughout.
In the case of `CNC(=S)N/N=C/c1cccc(C)n1`, the TGI with RXF 393 renal is 97.4 µM; in the experiment with TK-10 renal it was greater than 100 µM; with SNB-19 CNS it was greater than 100 µM; with IGROV1 ovarian, greater than 100 µM; with CCRF-CEM leukemia, greater than 73.6 µM; with HOP-62 NSCLC it was 46.7 µM. In addition, the TGI is greater than 78.1 µM in the experiment on SR leukemia; greater than 100 µM in the experiment with OVCAR-4 ovarian; greater than 100 µM in the experiment on HCT-116 colon; 60.9 µM in the experiment with NCI-H460 lung; 64.1 µM with SN12C renal; 98.5 µM in the experiment on 786-0 renal. For the same molecule, the TGI in the experiment with MCF7 breast was greater than 100 µM; with SK-MEL-5 melanoma, greater than 74.9 µM; with OVCAR-5 ovarian, greater than 100 µM; in the experiment on MDA-MB-435, greater than 100 µM.
As to `COC(=O)CCC12CCC(O1)c1ccccc12` (stereo not given), the TGI in the experiment with RXF 393 renal, in the experiment with TK-10 renal, with SNB-19 CNS, with IGROV1 ovarian, with CCRF-CEM leukemia and with HOP-62 NSCLC was greater than 100 µM throughout. Also, the TGI in the experiment on SR leukemia, in the experiment with OVCAR-4 ovarian, in the experiment on HCT-116 colon, with NCI-H460 lung, in the experiment with SN12C renal and in the experiment with 786-0 renal was greater than 100 µM each time. The TGI in the experiment on MCF7 breast, in the experiment on SK-MEL-5 melanoma, in the experiment with OVCAR-5 ovarian and with MDA-MB-435 was greater than 100 µM throughout.
In the case of `CN(C)c1ccc(/C=C/C=C(/C#N)c2ccccc2)cc1`, the TGI was greater than 79.5 µM in the experiment with RXF 393 renal; greater than 100 µM in the experiment with TK-10 renal; greater than 88.1 µM in the experiment with SNB-19 CNS; greater than 100 µM in the experiment with IGROV1 ovarian; greater than 77.1 µM with CCRF-CEM leukemia; greater than 97 µM in the experiment on HOP-62 NSCLC. In addition, the TGI with SR leukemia was greater than 39.7 µM; with OVCAR-4 ovarian it was greater than 65.8 µM; with HCT-116 colon it was greater than 77 µM; in the experiment on NCI-H460 lung, 83.7 µM; in the experiment with SN12C renal, greater than 100 µM; in the experiment on 786-0 renal, greater than 62.7 µM. Also, the TGI in the experiment with MCF7 breast was greater than 87.9 µM; with SK-MEL-5 melanoma, greater than 100 µM; in the experiment with OVCAR-5 ovarian, greater than 100 µM; in the experiment with MDA-MB-435, 6.19 µM.
On to `CC1C[C@]2(C)C(=O)N(c3ccccc3)C(=N)[C@@H]2N(C)c2ccccc21` (stereo not given in full), for which the TGI with RXF 393 renal, in the experiment with TK-10 renal, in the experiment on SNB-19 CNS, in the experiment on IGROV1 ovarian, in the experiment with CCRF-CEM leukemia and in the experiment on HOP-62 NSCLC was greater than 100 µM throughout. Besides, the TGI in the experiment on SR leukemia, with OVCAR-4 ovarian, in the experiment with HCT-116 colon, in the experiment with NCI-H460 lung, with SN12C renal and with 786-0 renal was greater than 100 µM each time. For the same molecule, the TGI in the experiment on MCF7 breast, in the experiment on SK-MEL-5 melanoma, with OVCAR-5 ovarian and in the experiment with MDA-MB-435 was greater than 100 µM in each case.

For the origin of these results see PubChem BioAssay (NCI).
